Results: patent publication US12383534B2, “Methods for treating cancer” (REGENTS OF THE UNIVERSITY OF MINNESOTA, priority 2021, dated 2025)

Legend:
NCC-CDS-X1 spheres = assay: Spheroid assay; type: cell-based, human; settings: day 4 and 8
Protocol: For spheroid formation assays, 2.5×10^4 NCC-CDS-X1 cells were seeded into 96-well plates (96-well Clear Flat Bottom Ultra-Low Attachment Microplate; Corning, Inc., Corning, NY, USA) in MEM/10% FBS media. Treatment with iP300w was started two days after the plating when the cells formed compact spheres.

[1] = system: CIC-DUX4 induced transcriptome in NCC-CDS-X1 cells; assay: RNA-seq transcriptional profile of NCC-CDS-X1 cells; type: cell-based, human; settings: for number of genes changed by more than 10-fold / number of down-regulated genes (2-fold or greater) / number of up-regulated genes (2-fold or greater): 0.3 μM
Protocol: RNA was extracted using an RNA extraction kit (Zymo) and cDNA was made using 0.5 μg total RNA with oligo-dT primer and Verso cDNA Synthesis Kit (Thermo Scientific) following the manufacturer's instructions. qPCRs were performed by using Premix Ex Taq (Probe qPCR, Takara) or SYBR-green. Gene expression levels were normalized to that of GAPDH and analyzed with 7500 System Software using the ACT method (Applied Biosystems). RNA-seq library preparation was done with 500 ng total RNA from NCC-CDS-X1 cells treated for 4 or 24 hours with iP300w (0.3 μM) using the Swift Rapid RNA Library Kit (SwiftBioscience). 36 base paired-end sequencing was performed on an Illumina NextSeq instrument at the University of Minnesota Genomics Center.
Paired-end Illumina sequencing reads were trimmed with TrimGalore (0.6.0) and transcript abundance was quantified using the human Gencode annotations (v34) using Salmon (v 1.2.1) with the GC-bias correction option. Counts were imported into R (v 4.0.2) using tximeta (v 1.6.3). Differentially expressed genes were identified with DESeq2 (v 1.28.1) and figures were made with the ComplexHeatmap (v 2.4.3), clusterProfiler (v 3.16.1) and ggplot2 (v 3.3.2) R packages. Sequencing reads and processed data have been deposited into GEO under the accession number GSE165729.
Next, global transcriptional profiles of NCC-CDS-X1 cells treated with iP300w were investigated. […] Among these differentially expressed genes, 170 and 244 were changed by more than 10-fold at 4 hour and 24 hours, respectively (FIG. 3A).

[2] = system: global H3K18 and H3K27 acetylation (p300/CBP); assay: Western blot for acetylated H3K18 and H3K27 in cell lines overexpressing CIC-DUX4; type: cell-based, mouse and human; settings: all analyzed CIC-DUX4 overexpressing cell lines, 18 hours
Protocol: For western blot analyses, cells were lysed with RIPA buffer supplemented with protease inhibitor cocktail (Complete, Roche), and proteins were separated on 10% SDS-PAGE gels, then transferred to PVDF membranes. Antibodies were diluted in 5% skim milk in TBST and incubated overnight at 4° C. or 1 hour at RT. An appropriate secondary HRP conjugated antibody was incubated for 1 hour at RT. Membranes were then washed with TBST, and signal was visualized using Pierce ECL western blotting substrate (Thermo Scientific). For immunofluorescence, cells cultured in 96 well plates were fixed in 4% PFA for 10 min., washed twice with PBS, permeabilized with 0.3% Triton X for 30 min, and blocked with 3% BSA for 1 hour at R/T. Primary antibodies were diluted in 3% BSA and incubated o/n at 4° C. An appropriate conjugated secondary antibody was applied for 60 min at RT. Nuclei were visualized using DAPI (1:5000, Sigma). […]

For CNC(=O)Cn1cc(-c2ccc3c(c2)[C@H](F)C[C@]32NC(=O)N(CC(=O)N(Cc3ccc(F)cc3)[C@@H](C)C(F)(F)F)C2=O)cn1 (single isomer, unassigned) [iP300w], the “effect on CDS cell sphere formation and growth” value (NCC-CDS-X1 spheres) was “dose and time inhibitory effect”, the “number of genes changed by more than 10-fold” value ([1]; 4 hour) was 170 genes and the “number of down-regulated genes (2-fold or greater)” value ([1]; 4 hours post-treatment) was 1182 genes. The “number of up-regulated genes (2-fold or greater)” value ([1]; 4 hours post-treatment) was 872 genes, the “number of genes changed by more than 10-fold” value ([1]; 24 hours) was 244 genes and the “number of down-regulated genes (2-fold or greater)” value ([1]; 24 hours post-treatment) was 2042 genes. The “number of up-regulated genes (2-fold or greater)” value ([1]; 24 hours post-treatment) was 1658 genes, the “effect on p21 (CDKN1A) expression” value ([1]; 24 hours) was “upregulated in the 24 hours” and the “effect on key transformation-regulatory genes ETV1, ETV4 and CCNE1” value ([1]; set of 165 CIC-DUX4 targets, 4 hours) was “significantly downregulated within 4 hours”. The “effect on CIC-DUX4 targets” value ([1]; set of 165 CIC-DUX4 targets, 24 hours) was “vast majority of CIC-DUX4 targets to be downregulated” and the “effect on CIC-DUX4-induced global H3K18 and H3K27 acetylation” value [2] was “abolished”.
